In article PMC9487510, “A Novel Oral GyrB/ParE Dual Binding Inhibitor Effective against Multidrug-Resistant Neisseria gonorrhoeae and Other High-Threat Pathogens” (Antimicrobial Agents and Chemotherapy, 2022):
Converted amounts (≈) assume the structure as drawn. Where two headings read alike, the source gives them in different places.

Key:
[1] = system: N. gonorrhoeae clinical isolates; assay: MIC, agar dilution (CLSI); type: cell-based, Neisseria gonorrhoeae; details: Neisseria gonorrhoeae; for MIC: read-out: MIC
[2] = system: VRSA; assay: MIC, in vitro susceptibility testing (CLSI); type: cell-based, Staphylococcus aureus; details: for MIC: Staphylococcus aureus, VRSA
[3] = system: VISA; assay: MIC, in vitro susceptibility testing (CLSI); type: cell-based, Staphylococcus aureus; details: for MIC: Staphylococcus aureus, VISA

How did the MIC ([1]; strain CDC60 (GCREF2013 005)) turn out when `CNc1cc(F)cc2c1[nH]c1nc(Oc3cnc(C)nc3)nc(N3CCC4(CC3)CO[C@@H](CO)C4)c12` [JSF-2414] was run?
The MIC was 7.8 ng/mL (≈ 0.0158 µM).

And the MIC ([1]; strain CDC61 (GCREF2013 006))?
Its MIC is 7.8 ng/mL (≈ 0.0158 µM).

And the MIC ([1]; strain CDC62 (GCREF2013 007))?
Its MIC is 16 ng/mL (≈ 0.0324 µM).

What about the MIC ([1]; strain CDC63 (GCREF2013 008)) of the same compound?
The MIC was 7.8 ng/mL (≈ 0.0158 µM).

What about the MIC ([1]; strain CDC64 (GCREF2013 009)) of the same compound?
The MIC was 16 ng/mL (≈ 0.0324 µM).

What about the MIC ([1]; strain CDC65 (GCREF2013 010)) of the same compound?
Its MIC is 7.8 ng/mL (≈ 0.0158 µM).

And the MIC ([1]; strain CDC66 (GCREF2013 011))?
The MIC was 16 ng/mL (≈ 0.0324 µM).

What about the MIC ([1]; strain CDC67 (GCREF2013 014)) of the same compound?
Its MIC is 7.8 ng/mL (≈ 0.0158 µM).

What about the MIC ([1]; strain CDC68 (GCREF2013 016)) of the same compound?
Its MIC is 2 ng/mL (≈ 0.00405 µM).

What about the MIC ([1]; strain CDC69 (GCREF2013 017)) of the same compound?
The MIC was 2 ng/mL (≈ 0.00405 µM).

And the MIC ([1]; strain CDC70 (GCREF2013 018))?
The MIC was 3.9 ng/mL (≈ 0.0079 µM).

And the MIC ([1]; strain CDC71 (GCREF2013 019))?
The MIC was 16 ng/mL (≈ 0.0324 µM).

What about the MIC ([1]; strain CDC72 (GCREF2013 020)) of the same compound?
The MIC was 7.8 ng/mL (≈ 0.0158 µM).

What about the MIC ([1]; strain CDC73 (GCREF2013 021)) of the same compound?
Its MIC is 16 ng/mL (≈ 0.0324 µM).

And the MIC ([1]; strain CDC74 (GCREF2013 022))?
Its MIC is 16 ng/mL (≈ 0.0324 µM).

What about the MIC ([1]; strain CDC75 (GCREF2013 023)) of the same compound?
The MIC was 7.8 ng/mL (≈ 0.0158 µM).

What about the MIC ([1]; strain CDC76 (GCREF2013 024)) of the same compound?
The MIC was 7.8 ng/mL (≈ 0.0158 µM).

What about the MIC ([1]; strain CDC77 (GCREF2013 025)) of the same compound?
The MIC was 7.8 ng/mL (≈ 0.0158 µM).

And the MIC ([1]; strain CDC78 (GCREF2013 026))?
The MIC was 0.5 ng/mL (≈ 0.00101 µM).

What about the MIC ([1]; strain CDC79 (GCREF2013 027)) of the same compound?
Its MIC is 3.9 ng/mL (≈ 0.0079 µM).

What about the MIC ([1]; strain CDC80 (GCREF2013 028)) of the same compound?
Its MIC is 3.9 ng/mL (≈ 0.0079 µM).

And the MIC ([1]; strain CDC81 (GCREF2013 029))?
Its MIC is 3.9 ng/mL (≈ 0.0079 µM).

What about the MIC ([1]; strain CDC82 (GCREF2013 031)) of the same compound?
Its MIC is 7.8 ng/mL (≈ 0.0158 µM).

And the MIC ([1]; strain CDC83 (GCREF2013 032))?
The MIC was 16 ng/mL (≈ 0.0324 µM).

And the MIC ([1]; strain CDC84 (GCREF2013 033))?
Its MIC is 7.8 ng/mL (≈ 0.0158 µM).

And the MIC ([1]; strain CDC86 (GCREF2013 035))?
Its MIC is 7.8 ng/mL (≈ 0.0158 µM).

And the MIC ([1]; strain CDC87 (GCREF2013 036))?
Its MIC is 3.9 ng/mL (≈ 0.0079 µM).

What about the MIC ([1]; strain CDC88 (GCREF2013 037)) of the same compound?
Its MIC is 7.8 ng/mL (≈ 0.0158 µM).

What about the MIC ([1]; strain CDC89 (GCREF2013 038)) of the same compound?
Its MIC is 3.9 ng/mL (≈ 0.0079 µM).

What about the MIC ([1]; strain CDC90 (GCREF2013 039)) of the same compound?
Its MIC is 7.8 ng/mL (≈ 0.0158 µM).

And the MIC ([1]; strain CDC91 (GCREF2013 040))?
Its MIC is 7.8 ng/mL (≈ 0.0158 µM).

And the MIC ([1]; strain CDC92 (GCREF2013 041))?
Its MIC is 3.9 ng/mL (≈ 0.0079 µM).

What about the MIC ([1]; strain CDC93 (GCREF2013 042)) of the same compound?
Its MIC is 3.9 ng/mL (≈ 0.0079 µM).

What about the MIC ([1]; strain CDC94 (GCREF2013 043)) of the same compound?
Its MIC is 7.8 ng/mL (≈ 0.0158 µM).

What about the MIC ([1]; strain CDC95 (GCREF2013 045)) of the same compound?
Its MIC is 7.8 ng/mL (≈ 0.0158 µM).

What about the MIC ([1]; strain CDC96 (GCREF2013 046)) of the same compound?
Its MIC is 2 ng/mL (≈ 0.00405 µM).

And the MIC ([1]; strain CDC97 (GCREF2013 047))?
Its MIC is 3.9 ng/mL (≈ 0.0079 µM).

And the MIC ([1]; strain CDC98 (GCREF2013 048))?
The MIC was 7.8 ng/mL (≈ 0.0158 µM).

And the MIC ([1]; strain CDC99 (GCREF2013 012))?
The MIC was 7.8 ng/mL (≈ 0.0158 µM).

And the MIC ([1]; strain CDC100 (GCREF2013 015))?
The MIC was 3.9 ng/mL (≈ 0.0079 µM).

And the MIC50 ([1]; 96 clinical isolates, read-out: MIC50)?
Its MIC50 is 3.9 ng/mL (≈ 0.0079 µM).

What about the MIC90 ([1]; 96 clinical isolates, read-out: MIC90) of the same compound?
The MIC90 was 7.8 ng/mL (≈ 0.0158 µM).

And the MIC range ([2]; N = 7 (Van: 9))?
Its MIC range is 0.0156 to 0.031 µg/mL.

What about the MIC ([2]; strain 2 25 23) of the same compound?
Its MIC is 0.016 µg/mL (≈ 0.0324 µM).

What about the MIC ([2]; strain 2 25 24) of the same compound?
The MIC was 0.016 to 0.031 µg/mL (≈ 0.0324 to 0.0628 µM).

And the MIC ([2]; strain 2 25 25)?
The MIC was 0.016 to 0.031 µg/mL (≈ 0.0324 to 0.0628 µM).

And the MIC ([2]; strain 2 25 26)?
Its MIC is 0.0156 to 0.031 µg/mL (≈ 0.0316 to 0.0628 µM).

What about the MIC ([2]; strain 2 25 27) of the same compound?
The MIC was 0.031 µg/mL (≈ 0.0628 µM).

And the MIC ([2]; strain 2 25 28)?
The MIC was 0.0156 to 0.031 µg/mL (≈ 0.0316 to 0.0628 µM).

And the MIC ([2]; strain VRS2 (VRS-2))?
The MIC was 0.031 µg/mL (≈ 0.0628 µM).

What about the MIC range ([3]; N = 8) of the same compound?
The MIC range was 0.0156 to 0.063 µg/mL.

What about the MIC ([3]; strain 2 11 43) of the same compound?
Its MIC is 0.0156 to 0.031 µg/mL (≈ 0.0316 to 0.0628 µM).

What about the MIC ([3]; strain 2 11 56) of the same compound?
The MIC was 0.063 µg/mL (≈ 0.128 µM).

What about the MIC ([3]; strain 2 11 57) of the same compound?
Its MIC is 0.031 to 0.063 µg/mL (≈ 0.0628 to 0.128 µM).

And the MIC ([3]; strain 2 11 61)?
The MIC was 0.0156 to 0.031 µg/mL (≈ 0.0316 to 0.0628 µM).

What about the MIC ([3]; strain 2 11 71) of the same compound?
The MIC was 0.0156 to 0.031 µg/mL (≈ 0.0316 to 0.0628 µM).

What about the MIC ([3]; strain 2 11 78) of the same compound?
Its MIC is 0.0156 to 0.031 µg/mL (≈ 0.0316 to 0.0628 µM).

And the MIC ([3]; strain 2 11 86)?
The MIC was 0.031 µg/mL (≈ 0.0628 µM).

And the MIC ([3]; strain 2 13 52)?
Its MIC is 0.0156 to 0.031 µg/mL (≈ 0.0316 to 0.0628 µM).
